Consider 25 compounds from patent US12281205B2, “Modified antibacterial compositions and methods” (priority 2016, dated 2025).

In data set [1] the test system is MDR A. baumannii (FADDI-AB156). The data set can be described thus: Antibiogram of MDR A. baumannii. The format is cell-based, Acinetobacter baumannii. The settings on record: for Susceptibility: CLSI resistant breakpoints.
Data set [2] has as its system MDR P. aeruginosa (FADDI-PA067). In words: Antibiogram of MDR P. aeruginosa. The settings on record: for Susceptibility: CLSI resistant breakpoints. It is filed as cell-based, Pseudomonas aeruginosa.
The subject of data set [3] is CMDR A. baumannii (FADDI-AB156). In words: Mouse peritonitis model. The settings on record: 24 h infection. The format is in vivo, C57BL/6 mice.
Data set [4] deals with E. coli. The data set can be described thus: Minimum inhibitory concentration (MIC), broth microdilution. It is filed as cell-based. The settings on record: Escherichia coli.
Protocol: The MICs of the PAMAM dendrimers were determined using a broth microdilution method. After the preparation of a dilution series of each compound and the addition of bacterial cells (Note: steps identical to that taken for the measurement of MBC), the optical density readings of each well at 630 nm were measured as a function of time using a microplate reader (Multiskan Ascent, Pathtech Pty. Ltd.). Positive controls containing cells alone were incorporated. Optical density was plotted against polymer concentration and linear regression analysis was used to determine the lowest concentration (MIC) at which the optical density reading becomes zero. A minimum of two independent experiments (biological replicates) of the assay were conducted and two technical replicates were used in each experiment for each bacterium, polymer, and concentration. Data is expressed as mean±standard deviation (SD) of the biological replicates and analysed using student's t-test.
In data set [5] the test system is sheep red blood cells (RBCs). The data set can be described thus: Hemolysis assay.
Protocol: Fresh sheep red blood cells (RBCs) were diluted 1 in 20 in PBS (pH 7.4), pelleted by centrifugation, and washed three times in PBS (1000 g, 10 min). The RBCs were counted using a cell counter (Coulter Particle Counter Z series, Beckman Coulter) and diluted to a final concentration of 2×10^7 cells/mL. 100 μL aliquots of the RBC solution were seeded into a V-bottomed 96-well plate containing 100 μL of test compound solution of varying concentrations (4-256 μg/mL) and incubated in a humidified atmosphere containing 5% CO2 at 37° C. for 2 h. Following incubation, the 96-well plate was centrifuged (1000 g, 10 min) and aliquots (100 μL) of supernatant were transferred to a flat-bottomed 96-well plate. Hemoglobin release upon lysis of the RBCs was monitored at 405 nm using a microplate reader (PerkinElmer 1420 Multilabel Counter VICTOR^3). Positive and negative controls for hemolysis were taken as RBC lysed with 0.5% Triton X-100 (1:1 v/v) and RBC suspension in PBS, respectively. The percentage of hemolysis was calculated using the following formula:
The percentage hemolysis was plotted against peptide polymer concentration and linear regression analysis was used to determine the hemolytic concentration needed to lyse 50% (HC50) of RBCs. Two independent runs of the assay were conducted and two replicates were used in each run for each compound and concentration.
Fresh sheep red blood cells (RBCs) were diluted 1 in 20 in PBS (pH 7.4), pelleted by centrifugation, and washed three times in PBS (1000 g, 10 min). The RBCs were counted using a cell counter (Coulter Particle Counter Z series, Beckman Coulter) and diluted to a final concentration of 2×10^7 cells/mL. 100 μL aliquots of the RBC solution were seeded into a V-bottomed 96-well plate containing 100 μL of polypeptide solution of varying concentrations (4-256 μg/mL) and incubated in a humidified atmosphere containing 5% CO2 at 37° C. for 2 h. Following incubation, the 96-well plate was centrifuged (1000 g, 10 min) and aliquots (100 μL) of supernatant were transferred to a flat-bottomed 96-well plate. Hemoglobin release upon lysis of the RBCs was monitored at 405 nm using a microplate reader (PerkinElmer 1420 Multilabel Counter VICTOR3). Positive and negative controls for hemolysis were taken as RBC lysed with 0.5% Triton X-100 (1:1 v/v) and RBC suspension in PBS, respectively. The percentage of hemolysis was calculated using the following formula:
The percentage hemolysis was plotted against polypeptide concentration and linear regression analysis was used to determine the hemolytic concentration needed to lyse 50% (HC50) of RBCs. Two independent runs of the assay were conducted and two replicates were used in each run for each polypeptide and concentration.
Data set [6] relates to K. pneumoniae (ATCC 13883). In words: Minimum bactericidal concentration (MBC). The arrangement: unit not given here. The settings on record: MHB. The format is cell-based, Klebsiella pneumoniae. How it is done: (§1) A dilution series of each compound was made by diluting test compound stock in media to a desired range of concentrations and a final volume of 100 μL in each well of a 96-well plate. Bacterial cells (which gave an optical density reading of ˜0.7 at 650 nm for E. coli, K. pneumoniae, P. aeruginosa, and S. aureus, ˜0.5 at 650 nm for A. baumannii and ˜1.8 at 650 nm for S. mutans) were diluted to 2.5×10^6 cells/mL in media and 100 μL of the bacteria solution was added to each well. The 96-well plate was then incubated at 37° C. for 90 min. For each well, microbial solution was diluted with saline (0.9% NaCl solution) using an appropriate dilution factor and placed on an agar plate (identical to that used for bacteria culture). For E. coli, K. pneumoniae, A. baumannii, and S. aureus, the agar plates were incubated overnight at room temperature, and then at 37° C. with aeration for 2 h. For P. aeruginosa and S. mutans, the agar plates were incubated at 37° C., with the former being incubated overnight with aeration and the latter in an anaerobic chamber for 48 h. The number of colony-forming units (CFU) was counted and expressed as CFU/mL. Positive controls consisting of cells without any treatment were used. […] Data is expressed as mean±standard deviation (SD) of the biological replicates and analysed using student's t-test. […]

For data set [7], the system named is E. coli (ATCC 25922). In words: Minimum bactericidal concentration (MBC). It is filed as cell-based, Escherichia coli. Also noted: unit not given here. Particulars: MHB.
Text: (§2) The number of colony-forming units (CFU) was counted and expressed as CFU/mL. Positive controls consisting of cells without any treatment were used.
as §2

For data set [8], the system named is P. aeruginosa (ATCC 47085). The data set can be described thus: Minimum bactericidal concentration (MBC). Also noted: unit not given here. Particulars: MHB. It is filed as cell-based, Pseudomonas aeruginosa. As for the experimental part:
as §1

Data set [9] has as its system A. baumannii (ATCC 19606). The data set can be described thus: Minimum bactericidal concentration (MBC). The format is cell-based, Acinetobacter baumannii. The arrangement: unit not given here. Particulars: MHB. As for the experimental part: as §1
Where [10] appears, read: concentration giving 50% hemolysis, 2 h.

Values after ≈ are worked out from the molar mass of the structure shown. Values joined by “and” are separate entries in the source; they are usually repeats but may differ in a detail not shown here. Equal entries are not always repeated. Where two headings read alike, the source gives them in different places. Where no end group is shown, it is not given here. A value given as a limit tells only on which side of the number the result lay.

Take `NCC[C@H](O)C(=O)N[C@@H]1C[C@H](N)[C@@H](O[C@H]2O[C@H](CN)[C@@H](O)[C@H](O)[C@H]2O)[C@H](O)[C@H]1O[C@H]1O[C@H](CO)[C@@H](O)[C@H](N)[C@H]1O` [Amikacin]: in [1], the Susceptibility result is given as “Resistant”.

For `CC1(C)S[C@@H]2[C@H](NC(=O)[C@H](N)c3ccccc3)C(=O)N2[C@H]1C(=O)O` [Ampicillin], the MIC in data set [1] (Acinetobacter baumannii) is ≥ 91.6 µM. Further, the Susceptibility result in data set [1] is “Resistant”.

For `C[C@H]1[C@H](NC(=O)/C(=N\OC(C)(C)C(=O)O)c2csc(N)n2)C(=O)N1S(=O)(=O)O` [Aztreonam], the Susceptibility result in data set [2] is “Resistant”.

Regarding `Cc1nnc(SCC2=C(C(=O)O)N3C(=O)[C@@H](NC(=O)Cn4cnnn4)[C@H]3SC2)s1` [Cefazolin], the Susceptibility entry in [1] is listed as “Resistant”.

For the compound `CO/N=C(\C(=O)N[C@@H]1C(=O)N2C(C(=O)[O-])=C(C[N+]3(C)CCCC3)CS[C@H]12)c1csc(N)n1` [Cefepime], the Susceptibility entry in data set [1] is on record as “Resistant”.

`CO[C@@]1(NC(=O)Cc2cccs2)C(=O)N2C(C(=O)O)=C(COC(N)=O)CS[C@@H]21` [Cefoxitin]: in data set [1], the Susceptibility result is “Resistant”.

As to `CC(C)(O/N=C(\C(=O)N[C@@H]1C(=O)N2C(C(=O)[O-])=C(C[n+]3ccccc3)CS[C@H]12)c1csc(N)n1)C(=O)O` [Ceftazidime], the Susceptibility result in data set [1] and in [2] was “Resistant” each time.

As for `CO/N=C(\C(=O)N[C@@H]1C(=O)N2C(C(=O)O)=C(CSc3nc(=O)c(=O)[nH]n3C)CS[C@H]12)c1csc(N)n1` [Ceftriaxone], the Susceptibility entry in data set [1] is listed as “Resistant”.

As to `C[C@@H](O)[C@H]1C(=O)N2C(C(=O)O)=C(SCCN=CN)C[C@H]12` [Imipenem], the MIC in data set [1] (Acinetobacter baumannii) was ≥ 214 µM. The compound also showed a survival in data set [3] of 50%.

`C[C@@H](O)[C@H]1C(=O)N2C(C(=O)O)=C(S[C@@H]3CN[C@H](C(=O)N(C)C)C3)[C@H](C)[C@H]12` [Meropenem]: the Susceptibility entry in data set [1] is “Resistant”.

`CCn1cc(C(=O)O)c(=O)c2ccc(C)nc21` [Nalidixic Acid]: the Susceptibility entry in data set [1] is reported as “Resistant”.

On to `CCn1cc(C(=O)O)c(=O)c2cc(F)c(N3CCNCC3)cc21` [Norfloxacin], for which the Susceptibility result in data set [1] is given as “Resistant”.

`CCN1CCN(C(=O)N[C@@H](C(=O)N[C@@H]2C(=O)N3[C@@H]2SC(C)(C)[C@@H]3C(=O)O)c2ccccc2)C(=O)C1=O` [Piperacillin]: the Susceptibility entry in data set [2] is given as “Resistant”.

For `CC1(C)S[C@@H]2[C@H](NC(=O)[C@H](C(=O)O)c3ccsc3)C(=O)N2[C@H]1C(=O)O` [Ticarcillin], the Susceptibility result in [2] was “Resistant”.

Turning to `NC[C@H]1O[C@H](O[C@H]2[C@H](O)[C@@H](O[C@H]3O[C@H](CO)[C@@H](O)[C@H](N)[C@H]3O)[C@H](N)C[C@@H]2N)[C@H](N)C[C@@H]1O` [Tobramycin], in data set [1] (Acinetobacter baumannii), the MIC was ≥ 34.2 µM. Moreover, the Susceptibility entry in data set [1] and in [2] was “Resistant” in each case.

Regarding `COc1cc(Cc2cnc(N)nc2N)cc(OC)c1OC` [Trimethoprim], the Susceptibility entry in [1] is on record as “Resistant”.

On to `C[C@H]1c2cccc(O)c2C(=O)C2=C(O)[C@]3(O)C(=O)C(C(N)=O)=C(O)[C@@H](N(C)C)[C@@H]3[C@@H](O)[C@@H]21` [doxycycline], for which, in data set [4], 0.5 µg/mL (≈ 1.13 µM) was the least that counted as inhibitory (MIC).

On to Amoxicillin/Clavulanic Acid, for which, in [1], the MIC is given as ≥87.6 µM and the Susceptibility result is recorded as “Resistant”.

Regarding Colistin Sulfate, in data set [1], the MIC was 13.8 µM and the Susceptibility entry is recorded as “Resistant”. Besides, in data set [2], the “Susceptibility, concentration in parentheses” value was > 110.8 µM and the Susceptibility result was “Resistant”.

On to “GIGKFLHSAKKFGKAFVGEIMNS-NH2 [Magainin II]”, for which the 50% haemolytic concentration (HC50) is 81.1 µM in data set [5] (setting [10]); 33 μg/mL and 81.1 μM in data set [5] (extrapolated from FIG. 59).

With Gentamicin, in [1], the MIC is reported as ≥33.5 µM and the Susceptibility entry is given as “Resistant”. Further, the Susceptibility entry in data set [2] was “Resistant”.

For “Ovispirin: antimicrobial peptide NH2- KNLRRIIRKIIHIIKKYG-COOH (H-KNLRRIIRKIIHIIKKYG-OH; also: SNAPP conjugate)”, the MBC was found to be 11.49 ± 4.86 in data set [6], 8.39 ± 0.44 in data set [7], 95.49 ± 9.73 in [8] and 2.21 ± 0.88 in data set [9]. Moreover, the 50% haemolytic concentration (HC50) is 61.8 µM in [5] (setting [10]); 27 μg/mL and 61.8 μM in data set [5] (extrapolated from FIG. 59).

For Piperacillin/Tazobactam, in data set [1], the minimal inhibitory concentration (MIC) was ≥247.3 µM and the Susceptibility entry is recorded as “Resistant”.

As for Ticarcillin/Clavulanic Aid, in [1], the minimal inhibitory concentration (MIC) is recorded as ≥333.0 µM and the Susceptibility result is reported as “Resistant”.

In the case of Trimethoprim/Sulfamethoxazole, in data set [1], the MIC is reported as ≥1102.2 µM and the Susceptibility entry was “Resistant”.

In general, MIC refers to the lowest concentration found to suppress growth. The HC50 is the concentration giving 50% haemolysis.
